Reference: US20040131581A1, “Novel synergistic antimicrobial compositions and methods” (SureCide Technologies, LLC, priority 2001, published 2004)
“Also recorded” adds a separate entry of the source. Where a name gives a salt, the structure may show the parent alone.

What was measured:
[1] = system: Salmonella choleraesuis (strain 10708); test: Growth of Salmonella in nutrient broth containing treated rice-hull litter, visual examination; type: cell-based; details: for Growth of Salmonella upon litter treated with one or more treatment composition components: Example 4, 7 g litter treated, Tables 5A, 5B, 5C; for Growth of Salmonella upon litter treated with various concentrations of treatment composition: Example 6, litter of Example 4 re-tested, 24 hours at 37° C.; for Growth of Salmonella in the Presence of an Iodophore: Example 7, 7 g litter treated 30 minutes, 0.5 g litter, 24 hrs at 37° C.
Method: . After exposing the litter to the antimicrobial composition, the preparations were filtered and the impregnated litter filtrates were dried and placed in separate culture tubes. Sterile nutrient broth (NB) was added to each tube and appropriate tubes were inoculated with 10^3 cfu/mL of Salmonella. All tubes were incubated overnight and examined visually. Visual interpretation results were confirmed by subculturing all culture tubes to plated media. […]
After soaking, the test preparations were removed from the litter material by vacuum filtration. The wet litter was spread on paper towels and allowed to dry between about 5 hours and overnight, followed by approximately 45 minutes exposure to desiccant.
Each of the treated litter samples was tested in triplicate for the ability to reduce or inhibit growth of an inoculated Salmonella culture. Three aliquots of litter (0.5 g each) from each of the four batches of treated litter (FeCl3/citrate, chitosan, FeCl3/citrate/chitosan, and water) were measured and placed in test tubes, to which 18 mL of microbial nutrient broth (Hardy Diagnostics, Santa Maria Calif.) was added. Control test tubes containing untreated litter (e) and no litter (f) were also prepared.
The tubes containing the treated litter were inoculated with 2 mL of a 10^4 cells/mL stock Salmonella solution (final concentration of 10^3 cells/mL). The inoculated tubes were incubated at 37° C. for 24 hours, then visually examined for positive cell growth. In addition, a sample from each test tube was subcultured onto nutrient and MacConkey agar.

[2] = pH of the litter-containing nutrient broth after incubation; type: physicochemical; details: for pH of the growth media after incubation in the presence of litter: Example 4; for pH: Example 6, tube solution after 24 hours at 37° C.
Method: Two extra tubes were used for positive growth (cells only) and negative growth (no cells) growth controls. 18 ml of NB was added to each tube, and […]. The tubes were incubated for 24 hours at 37° C., after which the pH was measured and the number of tubes for each treatment showing signs of bacterial growth were counted.

Row | Compound | Growth of Salmonella upon litter treated with one or more treatment composition components [1] | Growth of Salmonella upon litter treated with one or more treatment composition components ([1]; listed as acetic acid) | pH of the growth media after incubation in the presence of litter [2] | Growth of Salmonella upon litter treated with various concentrations of treatment composition [1] | pH [2] | Growth of Salmonella in the Presence of an Iodophore [1]
1 | CC(=O)O [Acetic Acid] | Growth | completely ineffective | ~6 |  |  | 
2 | O=C(O)CC(O)(CC(=O)O)C(=O)O [50 mM citrate] | Growth |  |  | Growth | pH 6.4 | 
3 | Cl [HCl] | completely ineffective; also recorded: Growth |  | ~6 |  |  | 
4 | povidone-iodine complex [0.1% PIC] |  |  |  |  |  | ineffective
5 | [Cl][Fe]([Cl])[Cl] [50 mM Fe, FeCl3] | Growth |  |  | Growth | pH 6.3 | 
6 | povidone-iodine complex [.25% PIC] |  |  |  |  |  | Growth
